Results reported in patent US20260297060A1, “COMPOUNDS FOR THE DEGRADATION OF MUTANT BRAF” (C4 THERAPEUTICS, INC., priority 2023, published 2026).
Like-named read-outs stand apart in the source and are kept apart here.

Columns and labels:
[1] = biological target: T1, BRAF V600E (Homo sapiens, UniProt P15056+Q96SW2, V600E); test: BRAF V600E HiBiT Degradation Assay; assay type: cell-based
T1 construct: knock-in of the HiBiT tag to the endogenous BRAF V600E locus; host or cells: A375.10 (A375 clonal line, CRISPR HiBiT knock-in at the endogenous BRAF V600E locus)
In short: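 Endogenous HiBiT knock-in on BRAF V600E in A375 cells (clone A375.10); 11-point half-log series, top 10 μM, 2, 6 or 24 h at 37° C. Lytic HiBiT luminescence, background-subtracted, normalized to DMSO; 4-parameter fit gives DC50, Emax (residual protein) and IP (inflection point).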

[2] = system: A375-NRAS^Q61K cells; test: CTGlo Cell Viability Assay, A375-NRAS^Q61K (A375.11) cells, 96 hours; assay type: cell-based, human; conditions: A375.11 (A375-NRAS^Q61K) cells; for CTGlo A375.11 96 hours Emax / Emax: lowest % viability achieved
In short: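 Viability as CellTiter-Glo ATP luminescence after 96 h compound exposure at 37 °C; A375.11 (BRAF V600E/NRAS Q61K) cells at 250/well, top final concentration 10 μM in half-log steps. Signal was background-corrected and set relative to DMSO controls. A 4-parameter logistic fit gave GI50 (50% crossing) and Emax.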

[3] = A375.10 cells, BRAF V600E, 2 hours, inflection point, read-out: HiBiT-Degradation A375.10 BRAF 2 hours IP
[4] = A375.10 cells, BRAF V600E, 2 hours, read-out: HiBiT-Degradation A375.10 BRAF 2 hours DC50
[5] = A375.10 cells, BRAF V600E, 2 hours, residual protein remaining
[6] = A375.10 cells, BRAF V600E, 6 hours, inflection point, read-out: HiBiT-Degradation A375.10 BRAF 6 hours IP
[7] = A375.10 cells, BRAF V600E, 6 hours, read-out: HiBiT-Degradation A375.10 BRAF 6 hours DC50
[8] = A375.10 cells, HiBiT, BRAF V600E, 24 hours, read-out: HiBiT-Degradation A375.10 BRAF 24 hours DC50
[9] = A375.10 cells, HiBiT, BRAF V600E, 24 hours, read-out: HiBiT-Degradation A375.10 BRAF 24 hours IP
[10] = A375.10 cells, BRAF V600E, 2 hours, residual protein remaining, read-out: HiBiT-Degradation A375.10 BRAF 2 hours Emax

T1 sequence (P15056 whole entry V600E): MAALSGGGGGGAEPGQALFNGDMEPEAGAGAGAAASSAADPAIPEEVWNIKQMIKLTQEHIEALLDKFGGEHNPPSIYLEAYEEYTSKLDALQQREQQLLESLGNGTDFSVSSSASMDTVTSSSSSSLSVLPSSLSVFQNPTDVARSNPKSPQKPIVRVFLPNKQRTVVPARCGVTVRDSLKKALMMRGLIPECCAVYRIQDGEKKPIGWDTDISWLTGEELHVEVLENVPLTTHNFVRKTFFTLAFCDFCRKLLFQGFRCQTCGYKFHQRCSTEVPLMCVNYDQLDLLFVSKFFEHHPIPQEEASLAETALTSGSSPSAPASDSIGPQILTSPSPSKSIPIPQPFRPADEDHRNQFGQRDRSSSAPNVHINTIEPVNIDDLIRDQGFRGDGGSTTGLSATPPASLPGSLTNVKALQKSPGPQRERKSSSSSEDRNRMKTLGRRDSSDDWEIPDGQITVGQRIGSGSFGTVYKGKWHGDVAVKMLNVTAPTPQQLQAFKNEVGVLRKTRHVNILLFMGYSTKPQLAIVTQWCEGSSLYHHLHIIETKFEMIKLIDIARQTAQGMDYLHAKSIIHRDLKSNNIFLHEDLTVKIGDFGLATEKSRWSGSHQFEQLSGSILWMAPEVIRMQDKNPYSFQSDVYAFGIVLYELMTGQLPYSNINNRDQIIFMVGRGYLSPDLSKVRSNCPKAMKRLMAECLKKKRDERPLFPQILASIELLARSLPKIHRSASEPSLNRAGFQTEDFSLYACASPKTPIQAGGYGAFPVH
T1 sequence (Q96SW2 whole entry): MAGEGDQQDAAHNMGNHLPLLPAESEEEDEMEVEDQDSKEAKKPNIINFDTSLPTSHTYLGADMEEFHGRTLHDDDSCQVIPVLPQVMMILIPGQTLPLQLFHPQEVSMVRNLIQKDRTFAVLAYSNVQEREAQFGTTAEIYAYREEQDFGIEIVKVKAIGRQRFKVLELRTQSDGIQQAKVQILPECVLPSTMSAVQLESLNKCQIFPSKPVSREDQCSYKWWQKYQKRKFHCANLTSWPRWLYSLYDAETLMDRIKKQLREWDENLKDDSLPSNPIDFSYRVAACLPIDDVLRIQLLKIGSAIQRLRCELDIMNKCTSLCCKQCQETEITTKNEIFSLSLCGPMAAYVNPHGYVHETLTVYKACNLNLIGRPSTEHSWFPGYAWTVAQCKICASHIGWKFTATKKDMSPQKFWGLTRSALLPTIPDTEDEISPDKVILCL
T1 sequence (Q16531 whole entry partner): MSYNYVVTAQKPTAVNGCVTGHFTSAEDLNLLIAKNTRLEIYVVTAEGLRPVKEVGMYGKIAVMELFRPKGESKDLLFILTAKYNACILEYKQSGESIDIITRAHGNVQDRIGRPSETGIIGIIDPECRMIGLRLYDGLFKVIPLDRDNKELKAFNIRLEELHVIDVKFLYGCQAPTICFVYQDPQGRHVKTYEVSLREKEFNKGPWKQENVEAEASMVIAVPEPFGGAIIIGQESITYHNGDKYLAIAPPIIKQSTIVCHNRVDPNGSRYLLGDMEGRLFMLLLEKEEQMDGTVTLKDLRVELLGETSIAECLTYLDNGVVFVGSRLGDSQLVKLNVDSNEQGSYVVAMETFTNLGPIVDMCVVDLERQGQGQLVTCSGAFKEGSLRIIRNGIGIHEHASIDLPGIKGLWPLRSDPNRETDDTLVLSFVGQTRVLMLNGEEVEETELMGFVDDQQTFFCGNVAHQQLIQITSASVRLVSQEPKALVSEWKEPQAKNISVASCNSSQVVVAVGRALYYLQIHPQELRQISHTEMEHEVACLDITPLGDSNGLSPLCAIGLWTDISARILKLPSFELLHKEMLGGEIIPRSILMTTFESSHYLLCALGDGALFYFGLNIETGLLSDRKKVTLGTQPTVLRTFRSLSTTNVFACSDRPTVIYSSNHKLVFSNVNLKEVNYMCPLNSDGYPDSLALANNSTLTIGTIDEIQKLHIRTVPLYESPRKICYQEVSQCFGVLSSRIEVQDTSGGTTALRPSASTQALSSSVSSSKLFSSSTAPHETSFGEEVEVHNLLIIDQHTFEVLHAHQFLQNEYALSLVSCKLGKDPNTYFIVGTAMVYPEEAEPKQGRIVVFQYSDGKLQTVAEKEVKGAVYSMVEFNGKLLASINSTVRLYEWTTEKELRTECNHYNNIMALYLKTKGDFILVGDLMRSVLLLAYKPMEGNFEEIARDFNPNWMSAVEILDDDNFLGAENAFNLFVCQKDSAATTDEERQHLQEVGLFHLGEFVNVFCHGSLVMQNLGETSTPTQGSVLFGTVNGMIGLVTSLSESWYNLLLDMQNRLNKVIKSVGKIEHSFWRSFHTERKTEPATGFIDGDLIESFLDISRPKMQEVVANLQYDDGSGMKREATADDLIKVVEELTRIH

CO[C@H]1CCN(S(=O)(=O)Nc2ccc(F)c(Oc3ccc4ncn(C5CC6(CCN(C7CCC(c8cc9c(cc8F)c(N8CCC(=O)NC8=O)nn9C)CC7)CC6)C5)c(=O)c4c3)c2C#N)C1 (single isomer, unassigned) [Compound 104]
DC50 [1, 3]: < 1000 nM
DC50 [1, 4]: < 1000 nM
HiBiT-Degradation A375.10 BRAF 2 hours Emax [1, 5]: *** (<=50%)
DC50 [1, 6]: < 1000 nM
DC50 [1, 7]: < 1000 nM
HiBiT-Degradation A375.10 BRAF 6 hours Emax ([1]; A375.10 cells, BRAF V600E, 6 hours, residual protein remaining): *** (<=50%)
HiBiT-Degradation A375.10 BRAF 24 hours Emax ([1]; A375.10 cells, HiBiT, BRAF V600E, 24 hours): *** (<=50%)
DC50 [1, 8]: < 1000 nM
DC50 [1, 9]: < 1000 nM
GI50 [2]: 1000 to 10000 nM
CTGlo A375.11 96 hours Emax [2]: ** (<90% and >50%)

CN(CCO)S(=O)(=O)Nc1ccc(F)c(Oc2ccc3ncc(C4CC5(C4)CN(C4CCC(c6cc7c(cc6F)c(N6CCC(=O)NC6=O)nn7C)CC4)C5)nc3c2)c1C#N (single isomer, unassigned) [Compound 322, 7-[2-cyano-6-fluoro-3-[[2-hydroxyethyl(methyl)sulfamoyl]amino]phenoxy]-2-[2-[4-[3-(2,4-dioxohexahydropyrimidin-1-yl)-5-fluoro-1-methyl-indazol-6-yl]cyclohexyl]-2-azaspiro[3.3]heptan-6-yl]quinoxaline]
DC50 [1, 3]: < 1000 nM
DC50 [1, 4]: 1000 to 10000 nM
HiBiT-Degradation A375.10 BRAF 2 hours Emax [1, 5]: ** (<90% and >50%)
GI50 [2]: > 10000 nM
CTGlo A375.11 96 hours Emax [2]: ** (<90% and >50%)

CCN(C)S(=O)(=O)Nc1ccc(F)c(Oc2ccc3ncc(OCC4CCN(C5CCC(c6ccc(NC7CCC(=O)NC7=O)cc6F)CC5)CC4)nc3c2)c1C#N (single isomer, unassigned) [Compound 117, 7-[2-cyano-3-[[ethyl(methyl)sulfamoyl]amino]-6-fluoro-phenoxy]-2-[[1-[4-[4-[(2,6-dioxo-3-piperidyl)amino]-2-fluoro-phenyl]cyclohexyl]-4-piperidyl]methoxy]quinoxaline]
DC50 [1, 3]: < 1000 nM
DC50 [1, 4]: < 1000 nM
HiBiT-Degradation A375.10 BRAF 2 hours Emax [1, 5]: *** (<=50%)
GI50 [2]: < 1000 nM
CTGlo A375.11 96 hours Emax [2]: ** (<90% and >50%)

CCN(C)S(=O)(=O)Nc1ccc(F)c(Oc2ccc3ncn(C4CC5(CCN([C@H]6C[C@@H](c7cc8c(cc7F)c(N7CCC(=O)NC7=O)nn8C)C6)CC5)C4)c(=O)c3c2)c1C#N [Compound 209, 6-[2-cyano-3-[[ethyl(methyl)sulfamoyl]amino]-6-fluoro-phenoxy]-3-[7-[3-[3-(2,4-dioxohexahydropyrimidin-1-yl)-5-fluoro-1-methyl-indazol-6-yl]cyclobutyl]-7-azaspiro[3.5]nonan-2-yl]-4-oxo-quinazoline]
DC50 [1, 3]: < 1000 nM
DC50 [1, 4]: < 1000 nM
Emax [1, 10]: 50 to 90%
GI50 ([2]; Homo sapiens, 96 h): 1000 to 10000 nM
Emax ([2]; Homo sapiens, 96 h): < 50%

CCN(C)S(=O)(=O)Nc1ccc(F)c(Oc2ccc3ncc(OC4CC5(C4)CN(C4CCC(c6cc7c(cc6F)c(N6CCC(=O)NC6=O)nn7C)CC4)C5)nc3c2)c1C#N (single isomer, unassigned) [Compound 282, 7-[2-cyano-3-[[ethyl(methyl)sulfamoyl]amino]-6-fluoro-phenoxy]-2-[[2-[4-[3-(2,4-dioxohexahydropyrimidin-1-yl)-5-fluoro-1-methyl-indazol-6-yl]cyclohexyl]-2-azaspiro[3.3]heptan-6-yl]oxy]quinoxaline]
DC50 [1, 3]: < 1000 nM
DC50 [1, 4]: < 1000 nM
HiBiT-Degradation A375.10 BRAF 2 hours Emax [1, 5]: ** (<90% and >50%)
GI50 [2]: < 1000 nM
CTGlo A375.11 96 hours Emax [2]: *** (<=50%)

CCN(C)S(=O)(=O)Nc1ccc(F)c(Nc2ccc3ncn([C@@H]4COC5(CCN(C6CCC(c7cc8c(cc7F)c(N7CCC(=O)NC7=O)nn8C)CC6)CC5)C4)c(=O)c3c2F)c1C#N (single isomer, unassigned) [Compound 69]
DC50 [1, 3]: < 1000 nM
DC50 [1, 4]: < 1000 nM
HiBiT-Degradation A375.10 BRAF 2 hours Emax [1, 5]: *** (<=50%)
DC50 [1, 6]: < 1000 nM
DC50 [1, 7]: < 1000 nM
Emax ([1]; A375.10 cells, BRAF V600E, 6 hours, residual protein remaining, read-out: HiBiT-Degradation A375.10 BRAF 6 hours Emax): < 50%
DC50 [1, 8]: < 1000 nM
Emax ([1]; A375.10 cells, HiBiT, BRAF V600E, 24 hours, read-out: HiBiT-Degradation A375.10 BRAF 24 hours Emax): < 50%
DC50 [1, 9]: < 1000 nM
GI50 [2]: < 1000 nM
CTGlo A375.11 96 hours Emax [2]: *** (<=50%)

Cn1nc(N2CCC(=O)NC2=O)c2cc(F)c(N3CC4(CC(N5CCC6(CC5)C[C@@H](n5cnc7ccc(Oc8c(F)ccc(NS(=O)(=O)N9C[C@H]%10C[C@H]%10C9)c8C#N)cc7c5=O)CO6)C4)C3)cc21 [Compound 241, (1S,5R)-N-[2-cyano-3-[3-[(3R)-8-[2-[3-(2,4-dioxohexahydropyrimidin-1-yl)-5-fluoro-1-methyl-indazol-6-yl]-2-azaspiro[3.3]heptan-6-yl]-1-oxa-8-azaspiro[4.5]decan-3-yl]-4-oxo-quinazolin-6-yl]oxy-4-fluoro-phenyl]-3-azabicyclo[3.1.0]hexane-3-sulfonamide]
DC50 [1, 3]: < 1000 nM
DC50 [1, 4]: < 1000 nM
Emax [1, 10]: < 50%
GI50 ([2]; Homo sapiens, 96 h): 1000 to 10000 nM
Emax ([2]; Homo sapiens, 96 h): 50 to 90%

CCN(C)S(=O)(=O)Nc1ccc(F)c(Oc2ccc3ncc(CC4CCN(C5CCC(c6cc7c(cc6F)c(N6CCC(=O)NC6=O)nn7C)CC5)CC4)nc3c2)c1C#N (single isomer, unassigned) [Compound 149, 7-[2-cyano-3-[[ethyl(methyl)sulfamoyl]amino]-6-fluoro-phenoxy]-2-[[1-[4-[3-(2,4-dioxohexahydropyrimidin-1-yl)-5-fluoro-1-methyl-indazol-6-yl]cyclohexyl]-4-piperidyl]methyl]quinoxaline]
DC50 [1, 3]: < 1000 nM
DC50 [1, 4]: < 1000 nM
Emax [1, 10]: < 50%
GI50 ([2]; Homo sapiens, 96 h): > 10000 nM
Emax ([2]; Homo sapiens, 96 h): 50 to 90%

CCN(C)S(=O)(=O)Nc1ccc(F)c(Oc2ccc3ncn(C4CCC5(CC4)CCN(C4CCC(c6ccc(NC7CCC(=O)NC7=O)cc6F)CC4)CC5)c(=O)c3c2)c1C#N (single isomer, unassigned) [Compound 10, 9-[6-[2-cyano-3-[[ethyl(methyl)sulfamoyl]amino]-6-fluoro-phenoxy]-4-oxo-quinazolin-3-yl]-3-[4-[4-[(2,6-dioxo-3-piperidyl)amino]-2-fluoro-phenyl]cyclohexyl]-3-azaspiro[5.5]undecane]
DC50 [1, 3]: < 1000 nM
DC50 [1, 4]: > 10000 nM
Emax [1, 10]: 50 to 90%
GI50 [2]: 1000 to 10000 nM
CTGlo A375.11 96 hours Emax [2]: *** (<=50%)

CCN(C)S(=O)(=O)Nc1ccc(F)c(Oc2ccc3ncn([C@@H]4CO[C@]5(CCN(C6CCC(c7cc8c(cc7F)c(N7CCC(=O)NC7=O)nn8C)CC6)C5)C4)c(=O)c3c2)c1C#N (single isomer, unassigned) [Compound 290]
DC50 [1, 3]: < 1000 nM
DC50 [1, 4]: 1000 to 10000 nM
Emax [1, 10]: 50 to 90%
GI50 [2]: > 10000 nM
CTGlo A375.11 96 hours Emax [2]: ** (<90% and >50%)

CCN(C)S(=O)(=O)Nc1ccc(F)c(Oc2ccc3ncn(C4CC5(CCC(N6CC[C@H](c7cc8c(cc7F)c(N7CCC(=O)NC7=O)nn8C)C(F)(F)C6)CC5)C4)c(=O)c3c2)c1C#N (stereo partly drawn) [Compound 224, 6-[2-cyano-3-[[ethyl(methyl)sulfamoyl]amino]-6-fluoro-phenoxy]-3-[7-[(4R)-4-[3-(2,4-dioxohexahydropyrimidin-1-yl)-5-fluoro-1-methyl-indazol-6-yl]-3,3-difluoro-1-piperidyl]spiro[3.5]nonan-2-yl]-4-oxo-quinazoline]
DC50 [1, 3]: < 1000 nM
DC50 [1, 4]: < 1000 nM
Emax [1, 10]: < 50%
GI50 ([2]; Homo sapiens, 96 h): < 1000 nM
Emax ([2]; Homo sapiens, 96 h): 50 to 90%

CCN(C)S(=O)(=O)Nc1ccc(F)c(Oc2ccc3ncc([C@H]4COC5(CCN(C6CCC(c7ccc(NC8CCC(=O)NC8=O)cc7F)CC6)CC5)C4)nc3c2)c1C#N (single isomer, unassigned) [Compound 59]
HiBiT-Degradation A375.10 BRAF 2 hours Emax [1]: ** (<90% and >50%)
DC50 [1, 3]: < 1000 nM
DC50 [1, 4]: < 1000 nM
GI50 [2]: 1000 to 10000 nM
CTGlo A375.11 96 hours Emax [2]: ** (<90% and >50%)
